Patent EP0345356A1, “PLATINUM COMPLEX AND THERAPEUTIC AGENT FOR MALIGNANT TUMOR” (TORAY INDUSTRIES, INC., priority 1987, dated 1989)

Key:
[1] = tested on: L1210 murine leukemia cells; test: Antitumor activity against L1210 leukemia in mice; assay type: in vivo, CDF1 mice; settings: for Survival days (mean ± SD) / T/C (%): given on 1st, 5th and 9th days after tumor inoculation; for Survival rate: number of 30 days survival mice / group
Method: L1210 murine leukemia cells which were subcultured in DBA/2 mouse were inoculated intraperitoneally into CDF1 mice at 10^5 cells/mouse. Each experimental group was composed of 6-10 mice (male, 6-weeks old). Each test compound was administered three times, i.e., on the 1st, 5th and 9th days after tumor inoculation. […] Each compound was dissolved or suspended in 0.05% "Tween 80" solution and administered in mice.

Slc:ICR mice = test: Acute toxicity test in mice (LD50, Miller-Tainter method); assay type: in vivo; settings: intraperitoneal, Slc:ICR mice (male), death rate on the 14th day
Method: Platinum complexes to be tested was administered intraperitoneally to Slc:ICR mice (male, 5 weeks old, 6 mice/group). Each complex was used in the form of a solution or suspension in a 0.05% "Tween 80" in saline. The LD50 value was calculated by the Miller-Tainter method from the death rate on the 14th day from the date of the administration.

Structure (SMILES)	Survival days (mean ± SD) ([1]; Dose 1 mg/kg)	T/C (%) ([1]; Dose 1 mg/kg)	Survival rate ([1]; Dose 1 mg/kg)	Survival days (mean ± SD) ([1]; Dose 10 mg/kg)	T/C (%) ([1]; Dose 10 mg/kg)	Survival rate ([1]; Dose 10 mg/kg)	Survival days (mean ± SD) ([1]; Dose 25 mg/kg)	T/C (%) ([1]; Dose 25 mg/kg)	Survival rate ([1]; Dose 25 mg/kg)	Survival days (mean ± SD) ([1]; Dose 50 mg/kg)	T/C (%) ([1]; Dose 50 mg/kg)	Survival rate ([1]; Dose 50 mg/kg)	Survival days (mean ± SD) ([1]; Dose 100 mg/kg)	T/C (%) ([1]; Dose 100 mg/kg)	Survival rate ([1]; Dose 100 mg/kg)	Survival days (mean ± SD) ([1]; Dose 200 mg/kg)	T/C (%) ([1]; Dose 200 mg/kg)	Survival rate ([1]; Dose 200 mg/kg)	LD50 values (Slc:ICR mice)
NC1CCCCC1N.O=C([O-])c1cc2ccccc2[nH]1.O=C([O-])c1cc2ccccc2[nH]1.[Pt+2] [XXIII-1, Bis(indole-2-carboxylato)(trans-ℓ-dach)platinum(II)]	8.5 ± 0.8 days	102%	0/6	10.5 ± 1.0 days	127%	0/6	15.0 ± 5.4 days	181%	0/6	18.7 ± 9.2 days	225%	1/6	21.2 ± 7.9 days	255%	2/6	8.2 ± 1.9 days	99%	0/6	180 mg/kg
NC1CCCCC1N.O=C([O-])C1CCCO1.O=C([O-])C1CCCO1.[Pt+2] (racemic) [XXIV-2, Bis(DL-2-tetrahydrofurancarboxylato)(trans-ℓ-dach)-platinum(II)]	11.5 ± 1.9 days	135%	0/6	20.3 ± 2.7 days	239%	0/6	16.7 ± 4.3 days	196%	0/6	10.2 ± 1.0 days	120%	0/6	6.3 ± 0.8 days	74%	0/6	4.8 ± 1.3 days	57%	0/6	45 mg/kg
CC(=O)N1c2ccccc2CC1C(=O)[O-].CC(=O)N1c2ccccc2CC1C(=O)[O-].NC1CCCCC1N.[Pt+2] (racemic) [XXIII-2, Bis(DL-1-acetylindoline-2-carboxylato)(trans-ℓ-dach)platinum(II)]	8.3 ± 0.5 days	102%	0/6	12.7 ± 8.6 days	157%	1/6	14.2 ± 3.3 days	175%	0/6	13.3 ± 6.1 days	164%	0/6	22.2 ± 9.0 days	274%	3/6	14.0 ± 2.4 days	173%	0/6	>200 mg/kg
